Target: PIK3CG (human) (UniProt P48736)
Experiment: Inhibition of PIK3CG Kinase Activity

Sequence of PIK3CG (human) (P48736 whole entry, looked up): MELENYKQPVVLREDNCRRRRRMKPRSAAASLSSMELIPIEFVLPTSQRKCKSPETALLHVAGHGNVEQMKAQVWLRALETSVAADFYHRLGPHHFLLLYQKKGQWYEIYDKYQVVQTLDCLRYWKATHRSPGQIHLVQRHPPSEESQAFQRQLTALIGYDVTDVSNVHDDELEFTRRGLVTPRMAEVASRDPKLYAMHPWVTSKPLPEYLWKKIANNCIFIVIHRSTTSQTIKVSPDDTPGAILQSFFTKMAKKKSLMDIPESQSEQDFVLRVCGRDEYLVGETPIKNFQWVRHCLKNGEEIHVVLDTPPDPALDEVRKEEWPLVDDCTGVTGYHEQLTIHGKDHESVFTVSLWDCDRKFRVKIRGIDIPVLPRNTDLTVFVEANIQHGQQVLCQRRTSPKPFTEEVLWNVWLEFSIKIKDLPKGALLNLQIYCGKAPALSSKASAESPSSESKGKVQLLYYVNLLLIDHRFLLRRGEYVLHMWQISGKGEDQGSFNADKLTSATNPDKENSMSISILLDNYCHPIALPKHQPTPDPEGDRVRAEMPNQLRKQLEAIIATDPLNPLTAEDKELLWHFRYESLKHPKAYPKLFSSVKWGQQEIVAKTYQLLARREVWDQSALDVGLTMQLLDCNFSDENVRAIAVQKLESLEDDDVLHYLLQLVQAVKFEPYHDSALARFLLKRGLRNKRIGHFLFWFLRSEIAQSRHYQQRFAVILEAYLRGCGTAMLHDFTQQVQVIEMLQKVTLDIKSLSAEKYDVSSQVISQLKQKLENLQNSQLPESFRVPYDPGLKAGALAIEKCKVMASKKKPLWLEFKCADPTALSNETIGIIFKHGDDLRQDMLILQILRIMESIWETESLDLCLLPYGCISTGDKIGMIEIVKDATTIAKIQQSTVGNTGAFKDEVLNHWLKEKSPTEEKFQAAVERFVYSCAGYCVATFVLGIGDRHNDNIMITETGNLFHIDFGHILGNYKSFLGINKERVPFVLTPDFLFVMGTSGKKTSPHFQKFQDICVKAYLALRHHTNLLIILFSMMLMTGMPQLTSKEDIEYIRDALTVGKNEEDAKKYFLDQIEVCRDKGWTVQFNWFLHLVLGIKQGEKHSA

## COc1ccc2oc(C(=O)Nc3nnn[nH]3)c(OC(C)C3CC3)c2c1 (centres undefined)
  IC50: 1460 nM

## COc1ccc2oc(C(=O)Nc3nnn[nH]3)c(OCC3CC=CCC3C)c2c1 (centres undefined)
  IC50: 185 nM

## COc1ccc2oc(C(=O)Nc3nnn[nH]3)c(OCC3C4CCC(C4)C3C)c2c1 (centres undefined)
  IC50: 67 nM

## COc1ccc2oc(C(=O)Nc3nnn[nH]3)c(OC3CCOCC3)c2c1
  IC50: 1180 nM

## COc1ccc2oc(C(=O)Nc3nnn[nH]3)c(OC3CCCCC3)c2c1
  IC50: 255 nM

## COc1ccc2oc(C(=O)Nc3nnn[nH]3)c(OC3CCC(C4CCCCC4)CC3)c2c1 (centres undefined)
  IC50: 380 nM

## CCC(Oc1c(C(=O)Nc2nnn[nH]2)oc2ccc(OC)cc12)C1CCCCC1 (centres undefined)
  IC50: 305 nM

## COc1ccc2oc(C(=O)Nc3nnn[nH]3)c(OC3CCCC3)c2c1
  IC50: 1050 nM

## COc1ccc2oc(C(=O)Nc3nnn[nH]3)c(OCC3CCCC3)c2c1
  IC50: 160 nM

## COc1ccc2oc(C(=O)Nc3nnn[nH]3)c(OC3CCC(C)C(C)C3)c2c1 (centres undefined)
  IC50: 76 nM

## COc1ccc2oc(C(=O)Nc3nnn[nH]3)c(OC(C)C3CCCC3)c2c1 (centres undefined)
  IC50: 150 nM

## O=C(Nc1nnn[nH]1)c1oc2ccc(Cl)cc2c1OC1CCCC1
  IC50: 3320 nM

## COc1ccc2oc(C(=O)Nc3nnn[nH]3)c(OCC3(C)COC3)c2c1
  IC50: 3640 nM

## COc1ccc2oc(C(=O)Nc3nnn[nH]3)c(OC3CC(C)CCC3C)c2c1 (centres undefined)
  IC50: 370 nM

## COc1ccc2oc(C(=O)Nc3nnn[nH]3)c(OCC3CCCCC3)c2c1
  IC50: 840 nM

## COc1ccc2oc(C(=O)Nc3nnn[nH]3)c(OC3CCCCCCC3)c2c1
  IC50: 185 nM

## COc1ccc2oc(C(=O)Nc3nnn[nH]3)c(OCC3CC=CCC3)c2c1 (centres undefined)
  IC50: 315 nM

## CC1(OCOc2c(C(=O)Nc3nnn[nH]3)oc3ccc(Cl)cc23)CC1
  IC50: 1460 nM

## CCC1(COc2c(C(=O)Nc3nnn[nH]3)oc3ccc(OC)cc23)COC1
  IC50: 1460 nM

## COc1ccc2oc(C(=O)Nc3nnn[nH]3)c(OC3CCC4CCCCC4C3)c2c1 (centres undefined)
  IC50: 325 nM

## COc1ccc2oc(C(=O)Nc3nnn[nH]3)c(OC3CC(C)CC3C)c2c1 (centres undefined)
  IC50: 290 nM

## COc1ccc2oc(C(=O)Nc3nnn[nH]3)c(OCC3(C)CC3)c2c1
  IC50: 220 nM

## COc1ccc2oc(C(=O)Nc3nnn[nH]3)c(OCC3CC3)c2c1
  IC50: 690 nM

## COc1ccc2oc(C(=O)Nc3nnn[nH]3)c(OC3CCC3)c2c1
  IC50: 400 nM

## COc1ccc2oc(C(=O)Nc3nnn[nH]3)c(OCC3CCCCCC3)c2c1
  IC50: 108 nM

## COc1ccc2oc(C(=O)Nc3nnn[nH]3)c(OC3CC4CCC3C4)c2c1 (centres undefined)
  IC50: 335 nM

## COc1ccc2oc(C(=O)Nc3nnn[nH]3)c(OC3CCCCCC3)c2c1
  IC50: 97 nM

## COc1ccc2oc(C(=O)Nc3nnn[nH]3)c(OC3CC(C)CC(C)C3)c2c1 (centres undefined)
  IC50: 41 nM

## COc1ccc2oc(C(=O)Nc3nnn[nH]3)c(OCC3CCC3)c2c1
  IC50: 175 nM
